{"source": "ChEMBL document CHEMBL1201862", "about": "“PubChem BioAssay data set” (2004)", "assay_in_all_cases": "inhibition of tumour cell growth, NCI panel, 48 h", "key": {"LOX IMVI": {"test_system": "LOX IMVI"}, "PC-3": {"test_system": "PC-3"}, "BT-549": {"test_system": "BT-549"}, "HCT-116": {"test_system": "HCT-116"}, "OVCAR-4": {"test_system": "OVCAR-4"}, "A549": {"test_system": "A549"}, "DU-145": {"test_system": "DU-145"}, "SR": {"test_system": "SR"}, "SNB-75": {"test_system": "SNB-75"}, "SNB-19": {"test_system": "SNB-19"}, "RPMI-8226": {"test_system": "RPMI-8226"}, "MCF7": {"test_system": "MCF7"}, "786-0": {"test_system": "786-0"}, "OVCAR-3": {"test_system": "OVCAR-3"}, "MOLT-4": {"test_system": "MOLT-4"}, "NCI-H226": {"test_system": "NCI-H226"}, "CAKI-1": {"test_system": "CAKI-1"}, "COLO 205": {"test_system": "COLO 205"}, "SN12C": {"test_system": "SN12C"}, "SW-620": {"test_system": "SW-620"}, "U-251": {"test_system": "U-251"}, "HT-29": {"test_system": "HT-29"}, "CCRF-CEM": {"test_system": "CCRF-CEM"}, "Malme-3M": {"test_system": "Malme-3M"}, "NCI-H460": {"test_system": "NCI-H460"}, "SF-539": {"test_system": "SF-539"}, "NCI-H23": {"test_system": "NCI-H23"}, "TK-10": {"test_system": "TK-10"}, "HL-60": {"test_system": "HL-60"}, "HCC 2998": {"test_system": "HCC 2998"}, "K562": {"test_system": "K562"}, "Hs-578T": {"test_system": "Hs-578T"}, "SK-MEL-5": {"test_system": "SK-MEL-5"}, "MDA-MB-435": {"test_system": "MDA-MB-435"}, "MDA-N": {"test_system": "MDA-N"}, "SK-OV-3": {"test_system": "SK-OV-3"}, "UACC-257": {"test_system": "UACC-257"}, "M14": {"test_system": "M14"}, "IGROV-1": {"test_system": "IGROV-1"}, "SF-268": {"test_system": "SF-268"}, "ACHN": {"test_system": "ACHN"}, "HOP-62": {"test_system": "HOP-62"}, "OVCAR-8": {"test_system": "OVCAR-8"}, "HCT-15": {"test_system": "HCT-15"}, "EKVX": {"test_system": "EKVX"}, "RXF 393": {"test_system": "RXF 393"}, "MDA-MB-231": {"test_system": "MDA-MB-231"}, "NCI-H522": {"test_system": "NCI-H522"}, "HOP-92": {"test_system": "HOP-92"}, "A498": {"test_system": "A498"}, "SK-MEL-2": {"test_system": "SK-MEL-2"}, "SK-MEL-28": {"test_system": "SK-MEL-28"}, "OVCAR-5": {"test_system": "OVCAR-5"}, "SF-295": {"test_system": "SF-295"}, "KM12": {"test_system": "KM12"}, "UACC-62": {"test_system": "UACC-62"}}, "note": "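Briefly, cells in 96-well plates were exposed to five compound concentrations for 48 h, and endpoints were estimated by linear interpolation. Abbreviation: GI50, concentration required for 50% inhibition of growth.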 Activity calls are given as the source filed them. No stated cut-off is given here; in the data, active = GI50 up to about 1.1 µM and inactive = higher."}
{"smiles": "Nc1nc(Cl)cc(NCC2(CO)CC(CCCCc3ccccc3)C2)n1", "note": "(stereo unspecified)", "values": [{"measurement": "GI50", "setting": "LOX IMVI", "result": "5.73 µM (inactive)"}, {"measurement": "GI50", "setting": "PC-3", "result": "46.1 µM (inactive)"}, {"measurement": "GI50", "setting": "BT-549", "result": "> 100 µM (inactive)"}, {"measurement": "GI50", "setting": "HCT-116", "result": "29 µM (inactive)"}, {"measurement": "GI50", "setting": "OVCAR-4", "result": "> 100 µM (inactive)"}, {"measurement": "GI50", "setting": "A549", "result": "16.1 µM (inactive)"}, {"measurement": "GI50", "setting": "DU-145", "result": "> 100 µM (inactive)"}, {"measurement": "GI50", "setting": "SR", "result": "19.2 µM (inactive)"}, {"measurement": "GI50", "setting": "SNB-75", "result": "81.3 µM (inactive)"}, {"measurement": "GI50", "setting": "SNB-19", "result": "> 100 µM (inactive)"}, {"measurement": "GI50", "setting": "RPMI-8226", "result": "10.9 µM (inactive)"}, {"measurement": "GI50", "setting": "MCF7", "result": "7.55 µM (inactive)"}, {"measurement": "GI50", "setting": "786-0", "result": "42.3 µM (inactive)"}, {"measurement": "GI50", "setting": "OVCAR-3", "result": "> 100 µM (inactive)"}, {"measurement": "GI50", "setting": "MOLT-4", "result": "3.36 µM (inactive)"}, {"measurement": "GI50", "setting": "NCI-H226", "result": "> 100 µM (inactive)"}, {"measurement": "GI50", "setting": "CAKI-1", "result": "82.8 µM (inactive)"}, {"measurement": "GI50", "setting": "COLO 205", "result": "27.9 µM (inactive)"}, {"measurement": "GI50", "setting": "SN12C", "result": "> 100 µM (inactive)"}, {"measurement": "GI50", "setting": "SW-620", "result": "78.7 µM (inactive)"}, {"measurement": "GI50", "setting": "U-251", "result": "> 100 µM (inactive)"}, {"measurement": "GI50", "setting": "HT-29", "result": "13.7 µM (inactive)"}, {"measurement": "GI50", "setting": "CCRF-CEM", "result": "87.5 nM (active)"}, {"measurement": "GI50", "setting": "Malme-3M", "result": "16.3 µM (inactive)"}, {"measurement": "GI50", "setting": "NCI-H460", "result": "40.8 µM (inactive)"}, {"measurement": "GI50", "setting": "SF-539", "result": "> 100 µM (inactive)"}, {"measurement": "GI50", "setting": "NCI-H23", "result": "21.8 µM (inactive)"}, {"measurement": "GI50", "setting": "TK-10", "result": "> 100 µM (inactive)"}, {"measurement": "GI50", "setting": "HL-60", "result": "6.55 µM (inactive)"}, {"measurement": "GI50", "setting": "HCC 2998", "result": "37.7 µM (inactive)"}, {"measurement": "GI50", "setting": "K562", "result": "2.23 µM (inactive)"}, {"measurement": "GI50", "setting": "Hs-578T", "result": "70.6 µM (inactive)"}, {"measurement": "GI50", "setting": "SK-MEL-5", "result": "3.86 µM (inactive)"}, {"measurement": "GI50", "setting": "MDA-MB-435", "result": "42.9 µM (inactive)"}, {"measurement": "GI50", "setting": "MDA-N", "result": "89.1 µM (inactive)"}, {"measurement": "GI50", "setting": "SK-OV-3", "result": "> 100 µM (inactive)"}, {"measurement": "GI50", "setting": "UACC-257", "result": "61.9 µM (inactive)"}, {"measurement": "GI50", "setting": "M14", "result": "67.6 µM (inactive)"}, {"measurement": "GI50", "setting": "IGROV-1", "result": "> 100 µM (inactive)"}, {"measurement": "GI50", "setting": "SF-268", "result": "> 100 µM (inactive)"}, {"measurement": "GI50", "setting": "ACHN", "result": "> 100 µM (inactive)"}, {"measurement": "GI50", "setting": "HOP-62", "result": "99.8 µM (inactive)"}, {"measurement": "GI50", "setting": "OVCAR-8", "result": "27.2 µM (inactive)"}, {"measurement": "GI50", "setting": "HCT-15", "result": 34.8, "unit": "µM"}, {"measurement": "GI50", "setting": "EKVX", "result": "> 100 µM (inactive)"}, {"measurement": "GI50", "setting": "RXF 393", "result": "34.6 µM (inactive)"}, {"measurement": "GI50", "setting": "MDA-MB-231", "result": "30.6 µM (inactive)"}, {"measurement": "GI50", "setting": "NCI-H522", "result": "66.7 µM (inactive)"}, {"measurement": "GI50", "setting": "HOP-92", "result": "96.4 µM (inactive)"}, {"measurement": "GI50", "setting": "A498", "result": "18.1 µM (inactive)"}, {"measurement": "GI50", "setting": "SK-MEL-2", "result": "> 100 µM (inactive)"}, {"measurement": "GI50", "setting": "SK-MEL-28", "result": "> 100 µM (inactive)"}, {"measurement": "GI50", "setting": "OVCAR-5", "result": "> 100 µM (inactive)"}, {"measurement": "GI50", "setting": "SF-295", "result": "18.2 µM (inactive)"}, {"measurement": "GI50", "setting": "KM12", "result": "65 µM (inactive)"}, {"measurement": "GI50", "setting": "UACC-62", "result": "> 100 µM (inactive)"}]}
